This note sets out measurements from US6071927A, “Spiro-piperidine derivatives and their use as therapeutic agents” (Merck Sharp & Dohme Ltd., priority 1996, dated 2000).

For the experiment, the system named is NK1 receptor. The experiment can be described thus: NK1 receptor test by the methods of WO 93/01165, pages 36 to 39. Format: binding, human. The settings on record: 3(R) compound compared with its 3(S) epimer, Example 124. The protocol:
The exemplified compounds of this invention were tested by the methods set out at pages 36 to 39 of International Patent Specification No. WO 93/01165.

Turning to “(3R,5R,6S)-3-[2-(2,2,-Difluoroethoxy)-5-(difluoromethoxy)phenyl]-6-phenyl-1-oxa-7-(tert-butoxycarbonyl)aza-spiro[4,5]decane [Example 214]”, the “potency relative to epimer” value is on record as “more potent”.
